{
  "source": "ChEMBL document CHEMBL1137482",
  "about": "“Carbonic anhydrase inhibitors: cloning, characterization, and inhibition studies of the cytosolic isozyme III with sulfonamides” (Bioorg Med Chem, 2007)",
  "biological_target": "Carbonic anhydrase 3 (Homo sapiens, UniProt P07451)",
  "sequence (P07451 whole entry)": "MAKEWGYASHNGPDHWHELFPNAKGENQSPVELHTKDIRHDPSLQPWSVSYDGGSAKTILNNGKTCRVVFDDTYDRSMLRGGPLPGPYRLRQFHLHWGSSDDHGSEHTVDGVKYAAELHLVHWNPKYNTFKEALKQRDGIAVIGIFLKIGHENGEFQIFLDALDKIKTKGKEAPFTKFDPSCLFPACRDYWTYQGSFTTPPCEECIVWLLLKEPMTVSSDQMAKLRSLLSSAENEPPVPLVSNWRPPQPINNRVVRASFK",
  "data": [
    {"smiles": "Nc1nnc(S(N)(=O)=O)s1", "values": [
      {"measurement": "Ki", "result": 148, "unit": "µM"}
    ]},
    {"smiles": "Nc1ccc(S(=O)(=O)NCc2ccc(S(N)(=O)=O)cc2)cc1", "values": [
      {"measurement": "Ki", "result": 114, "unit": "µM"}
    ]},
    {"smiles": "Nc1ccc(S(=O)(=O)Nc2nnc(S(N)(=O)=O)s2)cc1", "values": [
      {"measurement": "Ki", "result": 18.1, "unit": "µM"}
    ]},
    {"smiles": "Nc1nccc(Nc2ccc(S(N)(=O)=O)cc2)n1", "values": [
      {"measurement": "Ki", "result": 2630, "unit": "µM"}
    ]},
    {"smiles": "Nc1ccccc1S(N)(=O)=O", "values": [
      {"measurement": "Ki", "result": 887, "unit": "µM"}
    ]},
    {"smiles": "Cn1nc(S(N)(=O)=O)sc1=N", "values": [
      {"measurement": "Ki", "result": 198, "unit": "µM"}
    ]},
    {"smiles": "NS(=O)(=O)c1ccc(CCO)cc1", "values": [
      {"measurement": "Ki", "result": 1190, "unit": "µM"}
    ]},
    {"smiles": "Nc1ccc(S(N)(=O)=O)cc1F", "values": [
      {"measurement": "Ki", "result": 2070, "unit": "µM"}
    ]},
    {"smiles": "NS(=O)(=O)c1ccc(CO)cc1", "values": [
      {"measurement": "Ki", "result": 4890, "unit": "µM"}
    ]},
    {"smiles": "Nc1ccc(S(N)(=O)=O)cc1Cl", "values": [
      {"measurement": "Ki", "result": 710, "unit": "µM"}
    ]},
    {"smiles": "Nc1ccc(S(=O)(=O)NCCc2ccc(S(N)(=O)=O)cc2)cc1", "values": [
      {"measurement": "Ki", "result": 140, "unit": "µM"}
    ]},
    {"smiles": "NS(=O)(=O)c1ccc(S(=O)(=O)Nc2cccc3c(Cl)c[nH]c23)cc1", "values": [
      {"measurement": "Ki", "result": 10.4, "unit": "µM"}
    ]},
    {"smiles": "CCNC1CN(CCCOC)S(=O)(=O)c2sc(S(N)(=O)=O)cc21", "note": "(single isomer, unassigned) [BRINZOLAMIDE]", "values": [
      {"measurement": "Ki", "result": 110, "unit": "µM"}
    ]},
    {"smiles": "NS(=O)(=O)c1ccc(C(=O)O)cc1", "note": "[CARZENIDE]", "values": [
      {"measurement": "Ki", "result": 11.3, "unit": "µM"}
    ]},
    {"smiles": "Cc1ccc(-c2cc(C(F)(F)F)nn2-c2ccc(S(N)(=O)=O)cc2)cc1", "note": "[CELECOXIB]", "values": [
      {"measurement": "Ki", "result": 154, "unit": "µM"}
    ]},
    {"smiles": "NS(=O)(=O)c1cc(Cl)c(Cl)c(S(N)(=O)=O)c1", "note": "[DICHLORPHENAMIDE]", "values": [
      {"measurement": "Ki", "result": 684, "unit": "µM"}
    ]},
    {"smiles": "NCc1ccc(S(N)(=O)=O)cc1", "note": "[MAFENIDE]", "values": [
      {"measurement": "Ki", "result": 681, "unit": "µM"}
    ]},
    {"smiles": "Cc1ccc(S(N)(=O)=O)cc1", "note": "[P-TOLUENESULFONAMIDE]", "values": [
      {"measurement": "Ki", "result": 7.9, "unit": "µM"}
    ]},
    {"smiles": "O=C1NS(=O)(=O)c2ccccc21", "note": "[SACCHARIN]", "values": [
      {"measurement": "Ki", "result": 1000, "unit": "µM"}
    ]},
    {"smiles": "Nc1ccc(S(N)(=O)=O)cc1", "note": "[SULFANILAMIDE]", "values": [
      {"measurement": "Ki", "result": 988, "unit": "µM"}
    ]},
    {"smiles": "CCN1CCCC1CNC(=O)c1cc(S(N)(=O)=O)ccc1OC", "note": "(configuration not stated) [SULPIRIDE]", "values": [
      {"measurement": "Ki", "result": 10.6, "unit": "µM"}
    ]},
    {"smiles": "CC1(C)O[C@@H]2[C@@H](CO[C@@]3(COS(N)(=O)=O)OC(C)(C)O[C@@H]23)O1", "note": "[TOPIRAMATE]", "values": [
      {"measurement": "Ki", "result": 780, "unit": "µM"}
    ]}
  ]
}
